What was measured:
[1] = tested on: Nox4-CreERT2 mice; experiment: Mechanical allodynia (paw withdrawal latency) in the spared nerve injury (SNI) model after tamoxifen induction; format: in vivo, mouse; details: tamoxifen 1 mg/d i.p. for 3 d starting 10 d after SNI, observed up to 21 d, no effect in the first 7 d or in tamoxifen-treated control mice
Procedure: Mechanical paw sensitivity. Paw withdrawal latency after mechanical stimulation was measured with an automated von Frey-type testing device (Dynamic Plantar Aesthesiometer; Ugo Basile) which allows for reliable detection of mechanical sensitivity in mice (Schmidtko et al., 2008). The stainless steel probe of the touch stimulator unit was pushed against the paw with ascending force until a strong and immediate withdrawal occurred. The maximum force was set at 5 g and the ramp speed was 0.5 g/s. The paw withdrawal latency was calculated as the mean of 4-6 measurements with at least 20 s in between.
Neuropathic pain. The “spared nerve injury” (SNI) model and the “chronic constriction injury” (CCI) model were used to investigate neuropathic pain behavior. Surgery was carried out under isoflurane anaesthesia. For SNI, two branches of the sciatic nerve were ligated and cut distally, leaving the sural nerve intact (Decosterd and Woolf, 2000). […]
(§1) Global gene ablation may cause developmental compensatory adaptations that might affect phenotypic changes in the genetically manipulated adult animal. […] Ten days after SNI, mice were i.p. injected with tamoxifen (1 mg/d for 3 d) to activate Cre recombinase and knock-down Nox4, and paw withdrawal latency times were measured up to 21 d after the first injection.

[2] = tested on: Nox4 mRNA; experiment: Nox4 mRNA expression by quantitative real-time RT-PCR after tamoxifen induction in Nox4-CreERT2 mice; format: in vivo, mouse; details: tamoxifen 1 mg/d i.p. for 3 d
Procedure: Tamoxifen induction. Tamoxifen (Sigma Aldrich) was prepared by dissolving in ethanol (10 mg per 100 μl) and mixing this solution with 900 μl corn oil for a final concentration of 10 mg/ml. Eight- to ten-week-old Nox4-CreERT2 mice were i.p. injected with 100 μl tamoxifen solution (1 mg, corresponding to about 40 mg/kg tamoxifen) once a day at 10, 11 and 12 d after SNI.
Mice were exsanguinated under deep isoflurane anaesthesia, and tissues were dissected, snap frozen in liquid nitrogen and stored at −80° C. Total RNA from spinal cord, brain and DRGs was extracted under RNase-free conditions using a RNA isolation kit (for spinal cord and brain: RNeasy® Lipid Tissue Mini Kit; Qiagen; for DRGs: RNAqueous Micro Kit; Ambion) according to the manufacturer's instructions, DNase treated for 15 min to minimize genomic DNA contamination and quantified with a NanoDrop® ND-1000 spectrophotometer (NanoDrop® Technologies). cDNA was synthesized using 200 ng RNA, random hexamer primers, RT-Enhancer and the Verso®-enzyme of the Verso® Kit (Thermo Scientific). Real-time RT-PCR was performed with an ABI Prism® 7500 Sequence Detection System (Applied Biosystems) using TaqMan Gene Expression Assays for murine Nox4 (Mm01317086_ml), Nox1 (Mm00549170_m1), Nox2 (Mm01287742_m1), Nox3 (Mm01339132_m1), GAPDH (Mm99999915_μl) and β-actin (Mm00607939_s1), purchased from Applied Biosystems. […] Relative expression of target gene levels was determined using the comparative ΔΔCt method, with Ct indicating the cycle number at which the signal of the PCR product crosses an arbitrary threshold set within the exponential phase of the PCR. […]
as §1

CC/C(=C(\c1ccccc1)c1ccc(OCCN(C)C)cc1)c1ccccc1 [tamoxifen, Tamoxifen]
Mechanical allodynia (paw withdrawal latency after mechanical stimulation) [1]: gradually recovered from mechanical allodynia
Nox4 mRNA in DRGs as compared to vehicle-treated Nox4-CreERT2 mice ([2]; Nox4-CreERT2 mice, SNI, 21 d after tamoxifen treatment, P=0.008): 54%
Nox4 mRNA in the spinal cord as compared to vehicle-treated Nox4-CreERT2 mice ([2]; Nox4-CreERT2 mice, SNI, 21 d after tamoxifen treatment, P=0.116): 83%
Nox4 mRNA in DRGs, of baseline levels ([2]; 21 d after treatment, no significant reduction in the spinal cord): ~50%
